Biological target: T1, IRAK4 (Homo sapiens, UniProt Q9NWZ3)
T1 sequence (Q9NWZ3 1-460): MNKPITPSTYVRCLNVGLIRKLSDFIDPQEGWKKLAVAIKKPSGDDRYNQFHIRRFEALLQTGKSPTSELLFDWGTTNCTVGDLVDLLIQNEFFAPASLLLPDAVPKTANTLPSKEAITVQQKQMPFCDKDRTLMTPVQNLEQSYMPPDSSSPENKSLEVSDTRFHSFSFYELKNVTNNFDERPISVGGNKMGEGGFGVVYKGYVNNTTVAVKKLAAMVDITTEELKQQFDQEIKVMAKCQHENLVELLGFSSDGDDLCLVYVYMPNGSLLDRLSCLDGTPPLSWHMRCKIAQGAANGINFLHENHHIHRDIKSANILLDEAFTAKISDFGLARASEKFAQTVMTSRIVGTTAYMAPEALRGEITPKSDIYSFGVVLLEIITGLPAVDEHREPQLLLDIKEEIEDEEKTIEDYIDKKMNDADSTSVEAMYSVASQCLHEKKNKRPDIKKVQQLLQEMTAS
Assay: enzymatic kinase activity assay
Type: biochemical
Conditions: read-out: DW18134

IC50: 11.2 ± 2 nM
Compound: CC1(C)Cc2cc(NC(=O)c3coc(-c4ccnc(N)c4)n3)c(-c3ccncc3)cc2O1 [DW18134]
